Experiments:
340 protein kinases = experiment: Kinase screening assay (radiometric 33PanQinase); assay type: biochemical, human; conditions: 10 µM; most inhibited kinases: CMGC family, particularly CDKs (23 out of the 30 most inhibited were CDK/Cyclin complexes)
Experimental: Compound 2384 according to the disclosure was subjected to kinase screening assays (performed at Reaction Biology, Germany). The screening assay was performed at a final compound concentration of 10 µM. A radiometric protein kinase assay (33PanQinase® ActivityAssay) was used for measuring the kinase activity of 340 protein kinases. All kinase assays were performed in 96-well FlashPlates™ from Perkin Elmer (Boston, MA, USA) in a 50 µL reaction volume. […] All PKC assays (except the PKC-mu and the PKC-nu assay) additionally contained 1 mM CaCl2, 4 mM EDTA, 5 µg/m! Phosphatidylserine and 1 µg/m! 1,2-Dioleyl-glycerol. The CAMK1D, CAMK2A, CAMK2B, CAMK2D, CAMK2G, CAMK4, CAMKK1, CAMKK2, DAPK2, EEF2K, MYLK, MYLK2 and MYLK3 assays additionally contained 1 µg/ml Calmodulin and 0.5 mM CaCl2. The PRKG1 and PRKG2 assays additionally contained 1 µM cGMP. The DNA-PK assay additionally contained 2.5 µg/ml DNA. The protein kinase reaction cocktails were incubated at 30°C for 60 minutes. The reaction was stopped with 50 µl of 2 % (v/v) H3PO4, plates were aspirated and washed two times with 200 µL 0.9 % (w/v) NaCl. Incorporation of 33Pi (counting of "cpm") was determined with a microplate scintillation counter (Microbeta, Wallac). All protein kinase assays were performed with a BeckmanCoulter Biomek 2000/SL robotic system. […]

MDR1 = target: T1, MDR1 (Homo sapiens, UniProt P08183); experiment: MDR1 efflux substrate assay in MDCK-MDR1; assay type: in vitro ADME; conditions: dog, MDCK-MDR1, 5µM, 60 min, pH 7.4
T1 construct: host or cells: MDCK-MDR1 (Preadyport)
Experimental: MDR1 and BCRP efflux substrate assays were conducted in MDCK-MDR1 and MDCK-BCRP in vitro models (Preadyport™, Solvo Biotech) at Symeres (Nederland). Compound of the invention (donor well concentration of 5µM) were incubated in cell monolayer 24-transwell Preadyport system, using Preadyport recommended pH 7.4 assay buffer (donor and receiver wells). After 60 min of incubation (no shaking), samples are collected and suspended into triple volume of 66% cold acetonitrile. Samples are stored at -20°C until thawed, centrifuged and analyzed by LC-MS. Quinidine was used a positive control for the MDR1 assay, and prazosin was used as a positive control for the BCRP assay. Exatecan was used as a control, known not to be an MDR1 substrate. Residual DMSO content from compounds stock solutions was below 1% (v/v). The assay was performed in duplicate. The quantification of test compounds in donor or receptor compartment is conducted using relative LC/MS peak areas (samples of initial incubation solutions are used as a single point calibrator), without any spiked standard samples. The data is used for estimating apparent permeability (Papp) and calculation of efflux ratio.

A549 = experiment: In vitro cytotoxicity assay (MTT); assay type: cell-based; conditions: Homo sapiens, 144 h, 6 days incubation
How it was run: (§1)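 Viability of each human cancer line is measured by MTT reduction after six-day continuous compound treatment at 37°C. IC50 derives from inhibition curve fitting relative to untreated cells.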

OE-19 = experiment: In vitro cytotoxicity assay (MTT); assay type: cell-based; conditions: Homo sapiens, OE19, 144 h, 6 days incubation
How it was run: as §1

KB-1 = experiment: In vitro cytotoxicity assay (MTT); assay type: cell-based; conditions: Homo sapiens, KB16, 144 h, 6 days incubation
How it was run: as §1

BXPC3 = experiment: In vitro cytotoxicity assay (MTT); assay type: cell-based; conditions: Homo sapiens, BXPC-3, 144 h, 6 days incubation
How it was run: as §1

Caco-2 = experiment: In vitro cytotoxicity assay (MTT); assay type: cell-based; conditions: Homo sapiens, 144 h, 6 days incubation
How it was run: as §1

HT-29 = experiment: In vitro cytotoxicity assay (MTT); assay type: cell-based; conditions: Homo sapiens, 144 h, 6 days incubation
How it was run: as §1

MCF-7 = experiment: In vitro cytotoxicity assay (MTT); assay type: cell-based; conditions: Homo sapiens, MCF7, 144 h, 6 days incubation
How it was run: as §1

HCT-116 = experiment: In vitro cytotoxicity assay (MTT); assay type: cell-based; conditions: Homo sapiens, 144 h, 6 days incubation
How it was run: as §1

CycK mRNA = CycK mRNA by RT-qPCR; assay type: cell-based, human; conditions: JIMT-1 cells, 1µM, 2h
Experimental: 1×10^6 JIMT-1 cells were plated in 3mL of DMEM/FBS 90:10 (v/v) in 6-well plates and incubated overnight. Cells were treated with the compound 2384 of the invention, with CR8 (a known molecular glue degrader that depletes CycK) or with the proteasome inhibitor MG-132 (MedChemExpress, Cat HY-13259) for 2h. RNA was extracted using the QIAamp RNeasy Mini Kit (cat#74106, Qiagen) according to the manufacturer's protocol. Reverse transcription was performed using SuperScripr™ IV reverse transcriptase (cat#LT02241, Invitrogen). Quantitative PCR was performed using a No ROX Sybr Master Mix in the LightCycler 480 Real-Time PCR system (Roche Life Science).
Cyclin K forward ([…]) and reverse ([…]) primers were purchased from Eurogentec. Gene expression was normalized using ribosomal 28S as the housekeeping gene.

in vitro = conditions: PAMPA, pH 7.4
Experimental: Stock solutions of compounds of the invention were prepared in dimethyl sulfoxide (DMSO) to a final concentration of 10 mM. Each stock solution was diluted to 50 µM in pH 7.4 Prisma HT buffer (pION) in the presence of 10% MeOH (v/v). 200 µL were added to each well of the donor plate in quintuplicate. […] The acceptor filter plate was carefully placed on top of the donor plate to form a "sandwich." The sandwich was incubated at 25°C for 5 h, at 300 rpm. UV-vis spectra of the solutions in the blank, reference, acceptor, and donor plates were measured using a Tecan Infinite 200 PRO M Nano Plus microplate reader.

T1 sequence (P08183 whole entry): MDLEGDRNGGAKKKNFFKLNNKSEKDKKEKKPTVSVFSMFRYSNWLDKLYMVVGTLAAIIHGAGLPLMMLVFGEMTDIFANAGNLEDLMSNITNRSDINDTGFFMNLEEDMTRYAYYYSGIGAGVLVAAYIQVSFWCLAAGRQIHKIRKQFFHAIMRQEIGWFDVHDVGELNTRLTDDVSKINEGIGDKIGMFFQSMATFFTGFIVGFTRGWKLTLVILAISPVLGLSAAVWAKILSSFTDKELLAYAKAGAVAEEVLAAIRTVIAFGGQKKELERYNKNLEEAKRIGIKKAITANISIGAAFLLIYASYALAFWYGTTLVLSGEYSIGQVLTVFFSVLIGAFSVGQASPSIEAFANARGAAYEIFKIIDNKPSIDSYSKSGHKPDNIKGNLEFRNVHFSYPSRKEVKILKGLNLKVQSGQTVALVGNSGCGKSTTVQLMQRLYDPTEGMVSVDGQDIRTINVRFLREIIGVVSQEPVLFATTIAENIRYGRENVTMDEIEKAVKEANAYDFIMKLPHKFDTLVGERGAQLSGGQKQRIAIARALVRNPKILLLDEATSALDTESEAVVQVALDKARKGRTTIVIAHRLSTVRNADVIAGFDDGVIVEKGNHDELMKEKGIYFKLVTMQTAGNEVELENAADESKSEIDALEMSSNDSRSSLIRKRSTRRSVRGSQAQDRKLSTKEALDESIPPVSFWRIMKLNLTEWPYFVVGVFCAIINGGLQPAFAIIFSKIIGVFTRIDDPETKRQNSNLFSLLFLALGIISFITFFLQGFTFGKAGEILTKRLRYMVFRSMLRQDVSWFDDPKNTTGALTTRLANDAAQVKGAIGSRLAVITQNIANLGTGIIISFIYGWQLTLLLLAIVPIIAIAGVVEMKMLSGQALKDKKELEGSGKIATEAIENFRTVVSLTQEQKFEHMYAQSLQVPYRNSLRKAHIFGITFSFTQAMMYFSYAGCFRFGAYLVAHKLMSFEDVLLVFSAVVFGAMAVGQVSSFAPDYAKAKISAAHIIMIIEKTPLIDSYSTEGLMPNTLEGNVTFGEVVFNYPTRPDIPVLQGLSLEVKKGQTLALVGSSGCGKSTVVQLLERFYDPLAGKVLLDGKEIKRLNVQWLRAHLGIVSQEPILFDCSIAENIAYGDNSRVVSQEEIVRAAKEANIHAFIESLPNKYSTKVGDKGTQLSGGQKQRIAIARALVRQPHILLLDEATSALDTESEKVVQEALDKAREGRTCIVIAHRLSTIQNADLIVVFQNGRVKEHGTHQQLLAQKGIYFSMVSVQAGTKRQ

For `N[C@H]1CC[C@H](Nc2nc(NCc3ccc(-c4ccccn4)cc3)n3ncc(Br)c3n2)CC1` [Compound 2384], the “inhibition of kinase activity” value (340 protein kinases) was “more than 90%”, the Papp A→B at 1 h, 5 µM (MDR1; read-out: Papp A (donor) to B (acceptor)) was less than 0.25 ×10⁻⁶ cm/s and the Papp B→A at 1 h, 5 µM (MDR1; read-out: Papp B (acceptor) to A (donor)) was 36.9 ×10⁻⁶ cm/s. For the same molecule, the IC50 (A549) was 0.56 nM, the IC50 (OE-19) was 2.24 nM and the IC50 (KB-1) was 0.38 nM. For the same molecule, the IC50 (BXPC3) was 1.46 nM, the IC50 (Caco-2) was 6.64 nM and the IC50 (HT-29) was 0.22 nM. The IC50 (MCF-7) was 3.42 nM, the IC50 (HCT-116) was 1.19 nM and the “CycK mRNA level” value (CycK mRNA) was “not at the CycK mRNA level”. The Papp at 5 h, 50 µM (in vitro) was 84 ×10⁻⁶ cm/s.
